Measurements taken from PubChem BioAssay AID743475 (The Scripps Research Institute Molecular Screening Center, 2014).
Calls of active or inactive are those of the source. The rule behind the calls is not given here.

Test system: OTUB2
Assay: late-stage follow-up, selectivity assay for CCHF vOTU protease inhibitor project, biochemical, fluorescence, assay provider (AID 743475)
Conditions: recombinant OTUB2, fluorogenic ubiquitin substrate, hits give high values

For Cc1ccc(N2C(=O)[C@@H]3[C@H](C2=O)C2c4ccccc4C=CN2[C@@H]3C(=O)c2ccco2)cc1 (some centres undefined), which inhibition (run 1, at 5.2 µM) is on record?
Its inhibition is 55.4%.

O=C(NC1=C(NC2CCS(=O)(=O)C2)C(=O)c2ccccc2C1=O)c1ccccc1 (centres undefined) was tested. Which inhibition (run 1, at 14.2 µM) did it give?
The inhibition was 56.9%.

With COC1=C(N)C(=O)c2nc(C)ccc2C1=O as the molecule, how does the inhibition (run 1, at 4.98 µM) read?
Its inhibition is 67.6%.

Which inhibition (run 1, at 1.16 µM) does the source give for Cn1nc(-c2ccccn2)nc2c(=O)n(C)c(=O)nc1-2 here?
Its inhibition is 98%.

With O=C(c1ccco1)[C@@H]1[C@@H]2C(=O)N(c3ccc(Br)cc3)C(=O)[C@@H]2C2c3ccccc3C=CN21 (some centres undefined) as the molecule, how does the inhibition (run 1, at 11.01 µM) read?
Its inhibition is 91.8%.

Which inhibition (run 1, at 29.01 µM) does the source give for NS(=O)(=O)c1ccc(NC(=O)COC(=O)c2ccc([N+](=O)[O-])s2)cc1 here?
The inhibition was 37.5%.

With NS(=O)(=O)c1ccc(NC2=CC(=O)C(=O)c3ccccc32)cc1 as the molecule, how does the inhibition (run 1, at 11.51 µM) read?
Its inhibition is 78.7%.

O=C1Cc2ccccc2C(=O)N1CCc1ccccc1 was tested. Which inhibition (run 2, at 3.02 µM) did it give?
The inhibition was 14.9% (inactive).

How did the inhibition (run 1, at 6.28 µM) turn out when COc1ccc2noc3c2c1C(=O)c1ccccc1-3 was run?
Its inhibition is 170%.

For CC1CCCC(NC(=O)COC(=O)c2ccc([N+](=O)[O-])s2)C1C (centres undefined), which inhibition (run 1, at 31.32 µM) is on record?
The inhibition was 33.7%.

O=C1C=C(Nc2ccccc2)c2ccccc2C1=O was tested. Which inhibition (run 1, at 15.55 µM) did it give?
Its inhibition is 75.6%.

COc1ccccc1NC(=O)COC(=O)c1ccc([N+](=O)[O-])s1 was tested. Which inhibition (run 1, at 35.07 µM) did it give?
Its inhibition is 61.9%.

For O=c1[nH]c(Nc2ccccc2)cc2cc(Br)ccc12, which inhibition (run 1, at 1.45 µM) is on record?
The inhibition was 57.8%.

For Cc1c(Cl)cnc(NC(=O)COC(=O)c2ccc([N+](=O)[O-])s2)c1Cl, which inhibition (run 1, at 20.44 µM) is on record?
Its inhibition is 49.9%.

Which inhibition (run 1, at 14.67 µM) does the source give for CC1COCC(C)N1C1=C(Cl)C(=O)c2ccccc2C1=O (centres undefined) here?
Its inhibition is 23.6%.

For CCc1cc[n+](C2=C(NS(=O)(=O)c3cccs3)C(=O)c3ccccc3C2=O)cc1, which inhibition (run 1, at 14.16 µM) is on record?
The inhibition was 54%.

O=C1Cc2ccccc2C(=O)N1 was tested. Which inhibition (run 1, at 0.6 µM) did it give?
Its inhibition is 67.3%.

For O=C(OCc1nnc(-c2ccccc2)o1)c1ccc([N+](=O)[O-])s1, which inhibition (run 1, at 26.04 µM) is on record?
Its inhibition is 46.9%.

For COC(CNC(=O)c1ccc2c3c(onc13)-c1ccccc1C2=O)OC, which inhibition (run 1, at 24.19 µM) is on record?
The inhibition was 58.5%.

With O=C(/C=C/c1ccc(O)cc1)c1ccc(NC2=C(N3CCCCC3)C(=O)c3ccccc3C2=O)cc1 as the molecule, how does the inhibition (run 1, at 10.17 µM) read?
Its inhibition is 30.7%.

Which inhibition (run 2, at 19.2 µM) does the source give for CN(C1=C(NC(=O)c2ccccc2)C(=O)c2ccccc2C1=O)C1CCS(=O)(=O)C1 (centres undefined) here?
Its inhibition is 57.8%.

Which inhibition (run 1, at 26.34 µM) does the source give for O=C(COC(=O)c1ccc([N+](=O)[O-])s1)Nc1ccc(F)cc1 here?
Its inhibition is 40.3%.

How did the inhibition (run 1, at 12.37 µM) turn out when O=C(NC1=CC(=O)c2ccccc2C1=O)c1ccccc1 was run?
Its inhibition is 46.4%.

With Cc1ccccc1-c1cc2c(nn1)-c1ccccc1C2=O as the molecule, how does the inhibition (run 2, at 4.46 µM) read?
Its inhibition is 23.3%.

For COc1cc(NC(=O)COC(=O)c2ccc([N+](=O)[O-])s2)cc(OC)c1OC, which inhibition (run 1, at 21.72 µM) is on record?
The inhibition was 41.2%.

How did the inhibition (run 1, at 1.13 µM) turn out when COc1cc(Br)c(C(=O)c2nccc3cc(OC)c(OC)cc23)cc1OC was run?
Its inhibition is 17.2% (inactive).

Cc1ccc2c(c1C)-c1c(ccc(C)c1C)C(=O)C2=O was tested. Which inhibition (run 1, at 18.9 µM) did it give?
The inhibition was 60.1%.

With O=C(COC(=O)c1ccc([N+](=O)[O-])s1)NCc1ccc(F)cc1 as the molecule, how does the inhibition (run 1, at 40.58 µM) read?
Its inhibition is 39.9%.

With O=C1Cc2ccccc2C(=O)N1Cc1ccccc1 as the molecule, how does the inhibition (run 1, at 1.31 µM) read?
Its inhibition is 68.4%.

For CCOC(=O)N=Nc1c2ccccc2c2nc3no[nH]c3nc12, which inhibition (run 1, at 7.75 µM) is on record?
The inhibition was 37.8%.

Which inhibition (run 1, at 12.24 µM) does the source give for Cc1ccc(NC2=CC(=O)C(=O)c3ccccc32)cc1 here?
The inhibition was 78.7%.

With CC1(C)C=C2C(=NN(c3ccccc3)C(N)=C2C#N)CO1 as the molecule, how does the inhibition (run 1, at 23.49 µM) read?
The inhibition was 78.2%.

For O=C(COC(=O)c1ccc([N+](=O)[O-])s1)Nc1ncc(C(F)(F)F)cc1Cl, which inhibition (run 1, at 27.79 µM) is on record?
Its inhibition is 42.3%.

With CCn1nc(/C=C/c2ccccc2)nc2c(=O)n(C)c(=O)nc1-2 as the molecule, how does the inhibition (run 1, at 0.49 µM) read?
Its inhibition is 98.8%.
